Reference: ChEMBL document CHEMBL4340547, “Synthesis and SAR development of quinoline analogs as novel P2X7 receptor antagonists” (Bioorg Med Chem Lett, 2019)

Experiments:
[1] = Protein binding in mouse plasma assessed as unbound fraction; format: ADME, cell-free
[2] = Protein binding in human plasma assessed as unbound fraction; format: ADME, cell-free
P2X purinoceptor 7 [3] = molecular target: T1, P2X purinoceptor 7 (Homo sapiens, UniProt Q99572); assay: Antagonist activity at human P2X7 receptor expressed in HEK293 cells assessed as inhibition of BzATP-induced YO PRO dye uptake preincubated for 20 mins followed by YO PRO dye and BzATP addition measured after 30 mins by fluorescence assay; format: cell-based
T1 sequence (Q99572 whole entry): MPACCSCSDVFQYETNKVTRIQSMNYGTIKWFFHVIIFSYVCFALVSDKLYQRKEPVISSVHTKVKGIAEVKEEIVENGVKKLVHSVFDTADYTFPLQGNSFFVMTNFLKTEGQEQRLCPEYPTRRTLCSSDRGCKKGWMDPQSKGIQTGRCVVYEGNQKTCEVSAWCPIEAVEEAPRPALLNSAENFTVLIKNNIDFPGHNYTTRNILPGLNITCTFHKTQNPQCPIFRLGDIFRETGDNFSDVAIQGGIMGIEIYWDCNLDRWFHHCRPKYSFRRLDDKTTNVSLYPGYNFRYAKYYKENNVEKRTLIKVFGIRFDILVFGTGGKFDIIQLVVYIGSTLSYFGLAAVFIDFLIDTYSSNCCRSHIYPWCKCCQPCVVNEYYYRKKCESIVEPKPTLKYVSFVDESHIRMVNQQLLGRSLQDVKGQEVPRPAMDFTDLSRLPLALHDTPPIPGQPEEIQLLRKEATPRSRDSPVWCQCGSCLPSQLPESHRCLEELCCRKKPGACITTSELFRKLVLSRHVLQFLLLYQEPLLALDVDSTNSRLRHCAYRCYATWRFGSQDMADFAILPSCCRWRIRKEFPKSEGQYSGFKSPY

[4] = AUC in mouse brain at 5 mg/kg, po; format: ADME, organism-based
[5] = Intrinsic clearance in mouse liver microsomes; format: ADME, Microsome; conditions: read-out: CLH
[6] = Dose normalized Cmax in mouse at 0.2 mg/kg, iv; format: ADME, organism-based; conditions: in vivo
[7] = Volume of distribution in mouse at 0.2 mg/kg, iv or 0.5 mg/kg, po; format: ADME, organism-based; conditions: in vivo
[8] = Intrinsic clearance in rat liver microsomes; format: ADME, Microsome; conditions: read-out: CLH
[9] = Dose normalized Cmax in mouse at 0.5 mg/kg, po; format: ADME, organism-based; conditions: in vivo
[10] = Protein binding in mouse plasma assessed as unbound fraction at 5 mg/kg, po; format: ADME, organism-based
[11] = molecular target: Voltage-gated inwardly rectifying potassium channel KCNH2 (Homo sapiens, UniProt Q12809); assay: Activity at human ERG
MDR [12] = assay: Efflux ratio of apparent permeability in MDCK cells expressing MDR; format: ADME, cell-based, Canis lupus familiaris; conditions: dog, MDCK-MDR1
P2X purinoceptor 7 [13] = molecular target: T2, P2X purinoceptor 7 (Mus musculus, UniProt Q9Z1M0); assay: Antagonist activity at mouse P2X7 receptor assessed as inhibition of BzATP-induced YO PRO dye uptake preincubated for 20 mins followed by YO PRO dye and BzATP addition measured after 30 mins by fluorescence assay
T2 sequence (Q9Z1M0 whole entry): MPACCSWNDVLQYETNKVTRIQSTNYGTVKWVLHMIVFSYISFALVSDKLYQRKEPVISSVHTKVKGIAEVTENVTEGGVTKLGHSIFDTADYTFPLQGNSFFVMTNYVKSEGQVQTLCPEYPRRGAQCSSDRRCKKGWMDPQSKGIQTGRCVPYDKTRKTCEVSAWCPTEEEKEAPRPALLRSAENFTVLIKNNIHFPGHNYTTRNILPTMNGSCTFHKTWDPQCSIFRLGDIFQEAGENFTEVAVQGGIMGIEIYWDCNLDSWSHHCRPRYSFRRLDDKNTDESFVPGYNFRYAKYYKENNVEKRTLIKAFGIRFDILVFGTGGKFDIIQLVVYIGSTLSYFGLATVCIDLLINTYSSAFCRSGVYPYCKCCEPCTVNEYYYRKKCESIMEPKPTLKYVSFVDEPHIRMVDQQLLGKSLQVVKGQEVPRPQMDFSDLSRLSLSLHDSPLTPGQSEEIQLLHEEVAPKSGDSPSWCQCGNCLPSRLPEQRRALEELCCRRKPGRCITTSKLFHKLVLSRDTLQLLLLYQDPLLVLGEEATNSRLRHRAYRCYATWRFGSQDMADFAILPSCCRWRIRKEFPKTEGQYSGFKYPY

MDR [14] = assay: Apparent permeability across apical to basolateral side in MDCK cells expressing MDR; format: ADME, cell-based, Canis lupus familiaris; conditions: dog, MDCK-MDR1
[15] = Intrinsic clearance in human liver microsomes; format: ADME, Microsome; conditions: read-out: CLH
[16] = Protein binding in rat plasma; format: ADME, cell-free; conditions: read-out: PPB
[17] = AUC in mouse plasma at 5 mg/kg, po; format: ADME, organism-based
P2X purinoceptor 7 [18] = molecular target: T3, P2X purinoceptor 7 (Rattus norvegicus, UniProt Q64663); assay: Antagonist activity at rat P2X7 receptor assessed as inhibition of BzATP-induced YO PRO dye uptake preincubated for 20 mins followed by YO PRO dye and BzATP addition measured after 30 mins by fluorescence assay
T3 sequence (Q64663 whole entry): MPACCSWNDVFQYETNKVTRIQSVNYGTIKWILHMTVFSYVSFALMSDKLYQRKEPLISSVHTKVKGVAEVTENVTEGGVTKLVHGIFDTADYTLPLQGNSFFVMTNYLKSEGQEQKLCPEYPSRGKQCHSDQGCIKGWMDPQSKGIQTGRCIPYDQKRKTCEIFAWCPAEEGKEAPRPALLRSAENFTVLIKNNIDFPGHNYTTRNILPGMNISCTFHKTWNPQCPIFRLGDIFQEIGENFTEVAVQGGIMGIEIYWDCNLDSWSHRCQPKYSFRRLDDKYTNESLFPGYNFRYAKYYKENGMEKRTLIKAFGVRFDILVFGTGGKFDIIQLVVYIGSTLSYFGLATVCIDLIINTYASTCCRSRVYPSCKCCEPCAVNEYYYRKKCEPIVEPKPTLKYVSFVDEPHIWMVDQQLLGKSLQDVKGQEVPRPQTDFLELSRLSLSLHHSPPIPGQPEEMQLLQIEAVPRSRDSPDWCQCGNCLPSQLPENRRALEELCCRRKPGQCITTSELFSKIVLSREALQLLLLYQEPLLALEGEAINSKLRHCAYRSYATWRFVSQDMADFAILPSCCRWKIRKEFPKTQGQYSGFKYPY

P2X purinoceptor 7 [19] = molecular target: T1, P2X purinoceptor 7; assay: Antagonist activity at P2X7R in LPS-stimulated human THP1 cells assessed as inhibition of BzATP-induced IL-1beta release preincubated for 30 mins followed by BzATP stimulation and measured after 30 mins by sandwich ELISA
[20] = Clearance in mouse at 0.2 mg/kg, iv or 0.5 mg/kg, po; format: ADME, organism-based; conditions: in vivo
[21] = Terminal half life in mouse at 0.2 mg/kg, iv or 0.5 mg/kg, po; format: ADME, organism-based; conditions: in vivo, read-out: beta t1/2 (converted)
[22] = Dose normalized AUC in mouse at 0.2 mg/kg, iv; format: ADME, organism-based; conditions: in vivo
[23] = Protein binding in mouse plasma; format: ADME, cell-free; conditions: read-out: PPB
[24] = Dose normalized AUC in mouse at 0.5 mg/kg, po; format: ADME, organism-based; conditions: in vivo
[25] = Unbound brain to plasma concentration ratio in mouse at 5 mg/kg, po; format: ADME, organism-based; conditions: read-out: K(p,uu,brain)
[26] = Protein binding in rat plasma assessed as unbound fraction; format: ADME, cell-free
[27] = Protein binding in human plasma; format: ADME, cell-free; conditions: read-out: PPB
[28] = Oral bioavailability in mouse at 0.5 mg/kg; format: ADME, organism-based; conditions: in vivo
[29] = Protein binding in mouse brain assessed as unbound fraction at 5 mg/kg, po; format: ADME, organism-based

Chain of Voltage-gated inwardly rectifying potassium channel KCNH2 (Q12809 whole entry): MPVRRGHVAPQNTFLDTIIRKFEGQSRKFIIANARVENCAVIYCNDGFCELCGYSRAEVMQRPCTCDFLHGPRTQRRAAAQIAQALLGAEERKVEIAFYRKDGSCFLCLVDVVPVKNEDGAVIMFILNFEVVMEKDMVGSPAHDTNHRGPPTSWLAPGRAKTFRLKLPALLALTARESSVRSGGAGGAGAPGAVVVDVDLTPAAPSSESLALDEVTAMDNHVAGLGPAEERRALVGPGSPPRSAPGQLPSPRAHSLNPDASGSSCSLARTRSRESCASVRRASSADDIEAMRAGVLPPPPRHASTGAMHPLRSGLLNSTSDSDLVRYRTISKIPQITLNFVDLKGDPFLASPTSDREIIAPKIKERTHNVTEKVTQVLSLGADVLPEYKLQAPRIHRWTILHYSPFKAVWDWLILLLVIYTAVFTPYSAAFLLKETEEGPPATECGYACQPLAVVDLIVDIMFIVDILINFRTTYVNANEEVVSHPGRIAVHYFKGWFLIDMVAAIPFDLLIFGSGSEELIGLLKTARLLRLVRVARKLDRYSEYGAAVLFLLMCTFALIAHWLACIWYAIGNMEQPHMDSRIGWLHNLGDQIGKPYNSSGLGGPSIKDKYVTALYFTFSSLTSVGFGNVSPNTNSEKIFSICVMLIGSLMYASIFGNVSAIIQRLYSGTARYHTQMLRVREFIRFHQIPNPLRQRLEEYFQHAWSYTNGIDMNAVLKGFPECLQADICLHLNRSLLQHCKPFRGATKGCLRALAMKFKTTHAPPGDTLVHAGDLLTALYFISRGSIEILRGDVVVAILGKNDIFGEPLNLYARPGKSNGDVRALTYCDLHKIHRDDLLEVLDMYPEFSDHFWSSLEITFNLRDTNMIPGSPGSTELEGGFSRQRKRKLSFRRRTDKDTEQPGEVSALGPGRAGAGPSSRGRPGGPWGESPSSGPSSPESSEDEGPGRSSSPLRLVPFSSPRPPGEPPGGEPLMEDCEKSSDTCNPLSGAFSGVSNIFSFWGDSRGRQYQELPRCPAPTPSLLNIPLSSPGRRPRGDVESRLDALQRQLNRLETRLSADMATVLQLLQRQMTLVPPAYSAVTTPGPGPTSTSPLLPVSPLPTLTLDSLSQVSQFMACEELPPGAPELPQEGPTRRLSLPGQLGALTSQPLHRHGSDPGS

Row | SMILES | fraction unbound [1] | fraction unbound [2] | IC50 (P2X purinoceptor 7 [3]) | AUC [4] | microsomal CLint [5] | Cmax/dose [6] | Vd [7] | microsomal CLint [8] | Cmax/dose [9] | fraction unbound [10] | Activity [11] | efflux ratio (MDR [12]) | IC50 (P2X purinoceptor 7 [13]) | Papp A→B (MDR [14]) | microsomal CLint [15] | fraction unbound [16] | AUC [17] | IC50 (P2X purinoceptor 7 [18]) | IC50 (P2X purinoceptor 7 [19]) | clearance [20] | also measured
1 | O=C(NCC1(O)CCCC(F)(F)C1)c1c(Cl)ccc2nc(N3CC[C@H](F)C3)ccc12 (stereo partly drawn) | 0.079 | 0.098 | 18 nM | 12.6 ng·h/mL | 34 µL/min/mg | 738 ng/mL | 1.19 L/kg | 23 µL/min/mg | 160 ng/mL | 0.079 | > 30 µM | 6.3 | 6.73 µM | 8.9 to 9 ×10⁻⁶ cm/s | 20 µL/min/mg | 0.03 to 0.1 | 136 ng·h/mL | 9.4 µM | 26.7 nM | 36.8 mL/min/kg | half-life [21]: 25.8 min; AUC/dose [22]: 451 ng·h/mL; fraction unbound [23]: 0.03 to 0.1; AUC/dose [24]: 143 ng·h/mL; Kp uu [25]: 0.13; fraction unbound [26]: 0.089; fraction unbound [27]: 0.03 to 0.1; bioavailability [28]: 32%; fraction unbound [29]: 0.11
2 | O=C(NCC1CCC(F)(F)CC1)c1c(Cl)ccc2nc(N3CC[C@H](F)C3)ccc12 | 0.03 | 0.055 | 8.2 nM | 30.9 ng·h/mL | 49 µL/min/mg | 545 ng/mL | 1.81 L/kg | 21 µL/min/mg | 75.1 ng/mL | 0.03 | 30 µM | 0.85 | 2.04 µM | 14.1 to 14.4 ×10⁻⁶ cm/s | 10 µL/min/mg | 0.03 to 0.1 | 84.7 ng·h/mL | 5.1 µM | 109 nM | 69.8 mL/min/kg | half-life [21]: 28.8 min; AUC/dose [22]: 238 ng·h/mL; fraction unbound [23]: 0.03 to 0.1; AUC/dose [24]: 72.9 ng·h/mL; Kp uu [25]: 0.37; fraction unbound [26]: 0.041; fraction unbound [27]: 0.03 to 0.1; bioavailability [28]: 31%; fraction unbound [29]: 0.03
